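These data come from cells grown in 96-well plates and exposed to compound for 48 hours at five concentrations. TGI is the concentration that stops growth completely.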

Test systems include HL-60(TB) leukemia; HS 578T breast; HCT-116 colon; MDA-MB-231 breast; OVCAR-5 ovarian; SR leukemia; OVCAR-8 ovarian; CAKI-1 renal; MDA-MB-435; M14 melanoma; BT-549 breast; MALME-3M melanoma; RPMI-8226 leukemia; NCI/ADR-RES ovarian; K-562 leukemia; ACHN renal; PC-3 prostate; SW-620 colon; HT29 colon.
Common to all, as to experiment: NCI tumour cell line growth inhibition, 48 h

`CSCCCNC(=O)c1csc(-c2csc(CCN)n2)n1`: the TGI in the assay with HL-60(TB) leukemia, with HS 578T breast, in the assay on HCT-116 colon, with MDA-MB-231 breast, with OVCAR-5 ovarian and in the assay on SR leukemia was greater than 100 µM each time. The TGI in the assay with OVCAR-8 ovarian, in the assay on CAKI-1 renal, in the assay on MDA-MB-435, in the assay with M14 melanoma, in the assay with BT-549 breast and in the assay with MALME-3M melanoma was greater than 100 µM each time. Also, the TGI in the assay with RPMI-8226 leukemia, with NCI/ADR-RES ovarian, in the assay with K-562 leukemia, in the assay on ACHN renal, with PC-3 prostate and in the assay on SW-620 colon was greater than 100 µM throughout. In the assay on HT29 colon, this compound yielded a TGI greater than 100 µM.

Regarding `CC1(c2nc3ccccc3[nH]2)CCC(C(N)=O)C(C)(C)O1` (configuration not stated), the TGI with HL-60(TB) leukemia, with HS 578T breast, in the assay on HCT-116 colon, in the assay with MDA-MB-231 breast, in the assay on OVCAR-5 ovarian and in the assay with SR leukemia was greater than 100 µM each time. Further, the TGI in the assay with OVCAR-8 ovarian, in the assay on CAKI-1 renal, with MDA-MB-435, in the assay with M14 melanoma, in the assay on BT-549 breast and in the assay with MALME-3M melanoma was greater than 100 µM throughout. Also, the TGI with RPMI-8226 leukemia, in the assay on NCI/ADR-RES ovarian, in the assay on K-562 leukemia, in the assay with ACHN renal, in the assay with PC-3 prostate and with SW-620 colon was greater than 100 µM throughout. In addition, the TGI in the assay on HT29 colon is greater than 100 µM.

Turning to `C/C=C/C(C#N)(Cc1ccccc1)OP1(=O)OC(c2ccccc2)C(C)N1C` (configuration not stated), the TGI in the assay on HL-60(TB) leukemia is 41.9 µM; in the assay on HS 578T breast, greater than 100 µM; in the assay with HCT-116 colon it was greater than 100 µM; in the assay with MDA-MB-231 breast it was greater than 100 µM; in the assay on OVCAR-5 ovarian, greater than 100 µM; with SR leukemia, greater than 100 µM. In addition, the TGI with OVCAR-8 ovarian, with CAKI-1 renal, in the assay on MDA-MB-435, in the assay on M14 melanoma, in the assay with BT-549 breast and in the assay with MALME-3M melanoma was greater than 100 µM throughout. Further, the TGI in the assay with RPMI-8226 leukemia, in the assay with NCI/ADR-RES ovarian, with K-562 leukemia, in the assay with ACHN renal, in the assay on PC-3 prostate and with SW-620 colon was greater than 100 µM throughout. Also, the TGI in the assay with HT29 colon is greater than 100 µM.

Take `O=C(NCCNCCNCCNC(=O)c1cc(-c2ccccc2)nc2ccccc12)c1cc(-c2ccccc2)nc2ccccc12`: the TGI with HL-60(TB) leukemia was 3.85 µM; in the assay with HS 578T breast, 4.96 µM; in the assay on HCT-116 colon, 3.39 µM; with MDA-MB-231 breast, 7.57 µM; with OVCAR-5 ovarian it was 4.94 µM; with SR leukemia it was 5.01 µM. Besides, the TGI in the assay on OVCAR-8 ovarian turned out to be 3.85 µM; in the assay with CAKI-1 renal it was 29.4 µM; in the assay on MDA-MB-435, 3.23 µM; in the assay with M14 melanoma it was 3.39 µM; in the assay with BT-549 breast, 21.9 µM; in the assay with MALME-3M melanoma it was 3.31 µM. Further, the TGI is 6.51 µM with RPMI-8226 leukemia; 29.3 µM in the assay with NCI/ADR-RES ovarian; 4.12 µM in the assay on K-562 leukemia; 4.91 µM in the assay on ACHN renal; 14.1 µM in the assay on PC-3 prostate; 3.31 µM in the assay on SW-620 colon. The TGI in the assay on HT29 colon was found to be 3.14 µM.

In the case of `O=C1c2cscc2C(=O)C1(O)O`, the TGI was 72.5 µM in the assay on HL-60(TB) leukemia; greater than 100 µM with HS 578T breast; 46.3 µM in the assay on HCT-116 colon; greater than 100 µM with MDA-MB-231 breast; greater than 100 µM in the assay on OVCAR-5 ovarian; 49.3 µM in the assay with SR leukemia. For the same compound, the TGI is greater than 100 µM in the assay on OVCAR-8 ovarian; 83.7 µM with CAKI-1 renal; 99.7 µM in the assay with MDA-MB-435; 45.5 µM in the assay with M14 melanoma; 90.9 µM in the assay with BT-549 breast; 54.8 µM with MALME-3M melanoma. Besides, the TGI in the assay on RPMI-8226 leukemia was greater than 100 µM; with NCI/ADR-RES ovarian, greater than 100 µM; in the assay on K-562 leukemia, greater than 100 µM; in the assay with ACHN renal, greater than 100 µM; in the assay on PC-3 prostate it was greater than 100 µM; in the assay on SW-620 colon, 42.1 µM. The TGI with HT29 colon was greater than 100 µM.

`COC(=O)[C@]12CCC(C)(C)C[C@H]1C1=CC[C@@H]3[C@@]4(C)CC[C@H](OC5OC(CO)C(O)C(O)C5OC5OC(CO)C(O)C(O)C5O)C(C)(C)[C@@H]4CC[C@@]3(C)[C@]1(C)CC2` (some centres not stated): the TGI with HL-60(TB) leukemia amounted to 19.4 µM; in the assay on HS 578T breast, 56.8 µM; in the assay on HCT-116 colon it was 18.7 µM; in the assay with MDA-MB-231 breast, 7.2 µM; with OVCAR-5 ovarian it was 30.5 µM; with SR leukemia, 26.8 µM. Besides, the TGI stood at 34 µM with OVCAR-8 ovarian; 21 µM in the assay with CAKI-1 renal; 20.8 µM with MDA-MB-435; 13.9 µM with M14 melanoma; 35.8 µM in the assay with BT-549 breast; 25.2 µM in the assay on MALME-3M melanoma. Moreover, the TGI in the assay on RPMI-8226 leukemia was 48.3 µM; in the assay on NCI/ADR-RES ovarian it was 29.1 µM; with K-562 leukemia, 25.4 µM; in the assay with ACHN renal it was 20.5 µM; in the assay on PC-3 prostate, 15.3 µM; with SW-620 colon, 27.7 µM. In the assay on HT29 colon, this compound registered a TGI of 22.1 µM.

For the compound `N#Cc1c(N)c2c(c(-c3ccccc3)c1-c1ccccc1)C(=O)N(NC(=O)c1ccccc1)C2=O`, the TGI in the assay on HL-60(TB) leukemia, in the assay with HS 578T breast, in the assay with HCT-116 colon, in the assay on MDA-MB-231 breast, with OVCAR-5 ovarian and in the assay with SR leukemia was greater than 100 µM in each case. For the same compound, the TGI in the assay with OVCAR-8 ovarian, with CAKI-1 renal, with MDA-MB-435, in the assay on M14 melanoma, in the assay on BT-549 breast and with MALME-3M melanoma was greater than 100 µM each time. Also, the TGI in the assay with RPMI-8226 leukemia, in the assay on NCI/ADR-RES ovarian, in the assay with K-562 leukemia, in the assay on ACHN renal, in the assay with PC-3 prostate and with SW-620 colon was greater than 100 µM in each case.

These data come from PubChem BioAssay (NCI).
